Patent US11136370B2, “Compositions and methods for thrombin generation assay” (The Scripps Research Institute, priority 2016, dated 2021)
Entries after “also recorded” stand apart in the source; their conditions may differ.

How the values were obtained:
[1] = test system: immobilized rTF; assay: Blood perfusion over immobilized rTF, volume of platelet aggregates and fibrin; assay type: cell-based, human
Description: Glass coverslips treated with 0.2 mg/ml poly-L-lysine for 6 h at 37° C. were coated with rTF for 18-20 hours at 37° C. or 2.5 mg/ml acid-insoluble type I collagen for 2 hours at 22-25° C. Then they were rinsed with pH 7.4 buffered-saline, assembled in a rectangular flow chamber with a 125 μm-high silicon gasket and positioned on a confocal microscope stage for analysis. Venous blood for testing was collected into final 10.9 mM trisodium citrate using a plastic syringe for normal volunteers or Vacutainer tubes (Becton Dickinson, Buccinasco, Milan) for patients and controls. Before perfusion at a flow rate yielding an initial wall shear rate of 300 s^−1 maintained with a syringe pump (Harvard Apparatus, Holliston, Mass.), CaCl2 was added to obtain 1.29 mM Ca^2+. In the blood of patients—potentially hypercoagulable—and related controls, lepirudin (50 nM) was also added to neutralize thrombin possibly generated before testing. […] For experiments with WT and mutant FVIIa, cells from group O citrated blood, containing 50 μg/ml CTI and 10 U/ml (ADPase activity) apyrase, were washed free of plasma by sequential centrifugation steps at 1500 g for 7 min. After the first, plasma was replaced with an equal volume of calcium-free Tyrode buffer, pH 6.5, with 5 U/ml apyrase; then with buffer and 1.25 U/ml apyrase; and finally with human FVII deficient plasma (George King Bio-Medical, Overland Park, Kans.) up to the original blood volume. Cell count results in reconstituted and native blood were within 90%. Experiments in Milan (Italy) were performed with a Leica TCS SP5 microscope and HCX PL APO 63x/1.40 NA oil immersion objective (Leica Microsystems GmbH, Wetzlar, Germany); in La Jolla (California) with a Zeiss Axiovert 135M/LSM 410 and Plan-Apochromat 40x/1.40 NA oil immersion objective (Carl Zeiss AG, Oberkochen, Germany).
Platelets adhering and aggregating onto the surface were visualized by adding quinacrine-HCl (mepacrine; 10 μg/ml; Sigma-Aldrich) to blood. Deposited fibrin was visualized with Alexa Fluor 546-labeled (Invitrogen) mouse monoclonal IgG (50 μg/ml) specific for the B chain of mouse and human fibrin (HB-8545; ATCC). Blood was perfused for 3-5 min at 37° C. with a syringe pump (Harvard Apparatus Inc.) at a flow rate yielding an initial (in the unobstructed flow path) wall shear rate of 300 s^−1. This was followed by buffer (DMEM) for 2 minutes to facilitate fibrin quantification by confocal z section analysis using a Zeiss Axiovert 135M/LSM 410 microscope (Carl Zeiss) and Plan-Apochromat×63/1.40 NA oil immersion objective. Image analysis was performed with NIH ImageJ64. Deposited fibrin volume was measured from confocal sections collected at 4 preset positions in the flow chamber. Total volume of deposited platelets and fibrin was calculated from the sum of the respective area coverage per section multiplied by the z interval (2 μm). All studies involving human subjects were conducted following institutionally approved protocols.
TF-coated glass coverslips were perfused with venous blood at a wall shear rate of 300 s^−1. A Zeiss Axiovert 135M/LSM 410 and Plan-Apochromat 40x/1.40 NA oil immersion objective (Carl Zeiss AG, Oberkochen, Germany) was used to visualize platelets/leukocytes and fibrin stained with mepacrine and a specific anti-body, respectively. Image analysis to calculate volumes was performed as described herein.
Glass coverslips treated with 0.2 mg/ml poly-L-lysine for 6 h at 37° C. were coated with rTF for 18-20 hours at 37° C., rinsed with buffered-saline and assembled in a rectangular flow chamber with a 125 μm-high silicon gasket. Venous blood was collected into final 10.9 mM trisodium citrate using a plastic syringe. CaCl2 was added to obtain 1.29 mM Ca^2+ before perfusion at a wall shear rate of 300 s-1 maintained with a syringe pump (Harvard Apparatus, Holliston, Mass.). […]

[2] = target: T1, nascent TF-FVIIa-FXa (Homo sapiens, UniProt P00742); assay: FVIII activation (FVIIIa generation, WB) by nascent FXa generated by TF-FVIIa; assay type: biochemical; conditions: for effect on FVIII activation by nascent FXa generated by TF-FVIIa: therapeutic concentrations, 50-450 nM
T1 construct: purchased Haematologic Technologies (FX); Siemens Healthcare Diagnostics (rTF); FVIIa made in house
Description: (§1) Thrombin was quantified with a fluorogenic substrate for calculation of % inhibition. […] Reactions were initiated by 100 pM FXa with 50 pM rTF as the phospholipid surface (top); or the preformed complex of 50 pM TF, 100 pM iFVIIa, 100 pM FXa, 5 nM NAPc2 (middle); or 50 pM TF/200 pM FVIIa/135 nM FX (bottom) in mixtures of 0.7 nM FVIII, 3 nM FV, 200 nM lepirudin, 10 nM TFPI, and 2.5 mM CaCl2 incubated for 120 s at 37° C. […] (n=3-4). […] Endogenous thrombin potential (ETP, right) was calculated from the area under the TG curve (n=2). Results in (E) and (F) are shown as 25th-75th percentile bars with min to max whiskers or min to max bars (when n≤3) with a line at the median. Differences were evaluated with the ANOVA/Tukey test (performed after log 10 transformation of the data shown in E); *P<0.05, ***P<0.001.
(A) WB analysis (representing 3) of the effect of anti-FVIIa MoAbs 3G12 and 12C7 (20 μg/ml) on TF-dependent FVIIIa generation after 120 s in reactions including 50 pM TF, 200 pM FVIIa, 135 nM FX, 3.5 nM FVIII, 3 nM FV and 200 nM lepirudin; quantification as in FIG. 4E. […] Reactions contained 50 pM TF, 200 pM FVIIa, 0.7 nM FVIII, 3 nM FV, 135 nM FX, 10 nM TFPI, 200 nM lepirudin and 2.5 mM CaCl2; anti-FVIIa MoAbs or control mouse IgG were at 20 μg/ml; the function-blocking anti-FVIII MoAb 8D4 was at 8 μg/ml. (C) Effect of anti-FVIIa MoAbs 3G12 and 12C7 (20 μg/ml), without or with anti-FVIII MoAb 8D4 (8 μg/ml) or anti-FXI MoAb O1A6 (20 μg/ml), on TG in normal PRP. […] Results in (B) and (D) are shown as 25th-75th percentile bars with min to max whiskers or min to max bars (when n≤3) with a line at the median. Differences were evaluated by a two-tailed t-test with Welch correction (A) or the ANOVA/Tukey test (B and D). *P<0.05, **P<0.01, ***P<0.001.
Coagulation reaction products were separated by reducing sodium dodecyl sulfate-polyacrylamide gel electrophoresis (SDS-PAGE), except for the analysis of FVIII activation in the presence of anti-FVIIa MoAbs that was performed under non-reducing conditions. After transfer to a polyvinylidene fluoride membrane, blots were probed with MoAb C5, biotinylated or not (0.5 μg/ml), for FVIII activation; MoAb AHV-5146 (1 μg/ml) for FV. Quantitative infrared detection of FVIIIa and FVa was obtained with IRDye 800CW-conjugated anti-mouse IgG or streptavidin followed by analysis with the Odyssey infrared imager (Li-COR, Lincoln, Nebr.). Concentrations were calculated by calibration with known quantities of FVIIIa and FVa.
The synthetic reaction mixtures comprised 0.7 nM FVIII, 3 nM FV, 135 nM FX, 104 prothrombin in 50 mM Tris-buffered saline, pH 7.4, with 0.1% BSA. […] Reactions to prevent thrombin effects were carried out in the presence of 200 nM lepirudin or 4 μM DAPA. Reactions were initiated by adding 0.6 to 400 pM rTF, 200 to 500 pM FVIIa or/and 10 nM FIXa, followed by 2.5 mM CaCl2 and incubation at 37° C. for the indicated times. 10 mM EDTA was then added to quench the reaction. Generation of FXa, FIIa and thrombin were evaluated by measuring amidolytic activity toward the chromogenic substrate S-2765 (180 μM; N-α-benzyloxycarbonyl-D-arginyl-L-glycyl-L-arginine-p-nitroaniline; DiaPharma, West Chester, Ohio) and the fluorogenic substrate Z-Gly-Gly-Arg-AMC (360 μM) respectively.

[3] = target: T2, ternary TF-FVIIa-FXa complex (Homo sapiens, UniProt P00742); assay: FV activation (FVa generation, WB) by TF-FVIIa with FX; assay type: biochemical; conditions: clinically relevant concentrations
T2 construct: purchased Haematologic Technologies (FX); Siemens Healthcare Diagnostics (rTF); FVIIa made in house
Description: (A) Phospholipid-free assay of FX (1 μM) to FXa conversion by the complex of 2 μM soluble rTF with 10 nM FVIIa WT, T99Y or E154A. (B) FXa generation by 50 pM phospholipid-reconstituted rTF with 200 pM FVIIa WT, T99Y or E154A added to 135 nM FX, 0.7 nM FVIII, 3 nM FV and 200 nM lepirudin (2 min, n=2-3; 4 min, n=4-5; 6 min, n=6-9). (C) WB (representing 2) of FVIII activation in reactions of 50 pM TF, 200 pM FVIIa WT or mutants, 0.7 nM FVIII, 3 nM FV and 200 nM lepirudin without/with 135 nM FX, incubated for 120 s at 37° C. […] (E) FXa generation measured in reactions as in (D) without TFPIα and in the presence of 10 nM FIXa (left, incubation 180 s; n=5-6 except=2 for E154A) or 90 nM FIX (right, incubation for 360 s; n=5-6). […] Differences were evaluated by the ANOVA/Tukey test; results at 4 and 6 min in (B) and in reactions with FIX in (E, right) were analyzed after transformation as y=log 10 y (**P<0.01, ***P<0.001).
Time-course (mean±SEM) of 1 μM FX activation by 2 μM phospholipid-free soluble recombinant TF with 10 nM FVIIa WT (n=4-7), T99Y (n=2-3) or E154A mutants (n=3-4); incubation at 37° C. […] FVIIIa activity (25th-75th percentile bars, min to max whiskers, line at the median) generated as in (B), but without TFPIα, measured as FXa produced by 10 nM FIXa (n=9 for FVIIa WT and T99Y; n=5 for E154A). **P<0.01, ***P<0.001) by ANOVA/Tukey tests. […]

[4] = test system: thrombin generation (TG); assay: TG in reactions with purified components (FVIIa, FIXa, rTF, FX, FV, prothrombin, TFPIα); assay type: biochemical, human; conditions: therapeutic doses
Description: as §1
The synthetic reaction mixtures comprised 0.7 nM FVIII, 3 nM FV, 135 nM FX, 104 prothrombin in 50 mM Tris-buffered saline, pH 7.4, with 0.1% BSA. […] Reactions to prevent thrombin effects were carried out in the presence of 200 nM lepirudin or 4 μM DAPA. […] Generation of FXa, FIIa and thrombin were evaluated by measuring amidolytic activity toward the chromogenic substrate S-2765 (180 μM; N-α-benzyloxycarbonyl-D-arginyl-L-glycyl-L-arginine-p-nitroaniline; DiaPharma, West Chester, Ohio) and the fluorogenic substrate Z-Gly-Gly-Arg-AMC (360 μM) respectively.

[5] = Plasma concentration in treated patients; assay type: in vivo; conditions: human, oral, n=10, 2 hours after drug intake
[6] = full anticoagulant dosage; cited from earlier work
[7] = target: FXa generated by Russel's viper venom (RVV) FX activator (Homo sapiens, UniProt P00742); assay: FVIII activation by FXa generated by Russel's viper venom FX activator; assay type: biochemical
Description: Thrombin was quantified with a fluorogenic substrate for calculation of % inhibition. […] Reactions were initiated by 100 pM FXa with 50 pM rTF as the phospholipid surface (top); or the preformed complex of 50 pM TF, 100 pM iFVIIa, 100 pM FXa, 5 nM NAPc2 (middle); or 50 pM TF/200 pM FVIIa/135 nM FX (bottom) in mixtures of 0.7 nM FVIII, 3 nM FV, 200 nM lepirudin, 10 nM TFPI, and 2.5 mM CaCl2 incubated for 120 s at 37° C. […] Endogenous thrombin potential (ETP, right) was calculated from the area under the TG curve (n=2).
In some experiments, prothrombin was omitted from reactions and 200 nM lepirudin was added to inactivate potentially contaminating thrombin. […] A stable complex with FXa as the only active protease was prepared with 50 pM rTF, 100 pM FVIIa-S195A (iFVIIa), 100 pM FXa and 5 nM NAPc2 incubated for 120 s at 37° C. FVIII activation by this complex was examined in reactions including FVIII, FV and lepirudin incubated for 120 s.

[8] = target: T3, FXa V17M mutant (Homo sapiens, UniProt P00742, V236M); assay: FVIIIa generation by FXa V17M in stable complex with TF-iFVIIa-NAPc2; assay type: biochemical; conditions: up to 5 nM rivaroxaban
T3 construct: TF-associated FVIIa has converted FX into FXa active protease

[9] = target: T4, pre-activated FXa either free or in a NAPc2-stabilized complex with TF-iFVIIa (Homo sapiens, UniProt P00742); assay: FVIII activation (FVIIIa generation, WB) by pre-activated FXa, free or in NAPc2-stabilized complex; assay type: biochemical; conditions: therapeutic concentrations, 50-450 nM
T4 construct: purchased Haematologic Technologies (FXa); Siemens Healthcare Diagnostics (rTF, Dade Innovin)
T4 sequence (P00742 41-179 limits assumed): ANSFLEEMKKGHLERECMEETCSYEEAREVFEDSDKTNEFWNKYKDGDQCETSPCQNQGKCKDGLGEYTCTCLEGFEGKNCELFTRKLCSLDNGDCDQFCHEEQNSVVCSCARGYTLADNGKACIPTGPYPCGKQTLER
T4 sequence (P00742 235-488 limits assumed): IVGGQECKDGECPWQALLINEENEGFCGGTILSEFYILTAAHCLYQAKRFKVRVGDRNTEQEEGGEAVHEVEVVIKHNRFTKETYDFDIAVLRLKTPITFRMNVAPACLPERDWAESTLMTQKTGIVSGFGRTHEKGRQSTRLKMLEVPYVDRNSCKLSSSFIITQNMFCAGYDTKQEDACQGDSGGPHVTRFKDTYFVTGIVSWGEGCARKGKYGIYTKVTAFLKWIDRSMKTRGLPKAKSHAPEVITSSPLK
Description: (D) WB analysis (representing 2) of FVIIIa generation by pre-activated or de novo generated FXa and its inhibition by increasing concentrations of AT/penta. Reactions (37° C.) initiated by 200 pM FXa or 20 pM FVIIa with 50 nM FX into mixtures of 400 pM TF, 0.7 nM FVIII, 200 nM lepirudin without (top, incubation 60 s) or with (bottom, incubation 120 s) 3 nM FV/50 nM FIX. (E) Quantification (relative to non-inhibited control) of FVIIIa generated as in D (bottom) calibrated with known FVIIIa quantities (n=6-8 by nascent FXa, 4-6 by pre-formed FXa). […]
Coagulation reaction products were separated by reducing sodium dodecyl sulfate-polyacrylamide gel electrophoresis (SDS-PAGE), except for the analysis of FVIII activation in the presence of anti-FVIIa MoAbs that was performed under non-reducing conditions. […] Quantitative infrared detection of FVIIIa and FVa was obtained with IRDye 800CW-conjugated anti-mouse IgG or streptavidin followed by analysis with the Odyssey infrared imager (Li-COR, Lincoln, Nebr.). Concentrations were calculated by calibration with known quantities of FVIIIa and FVa. […]

T1 sequence (P00742 41-179 limits assumed): as the sequence (P00742 41-179 limits assumed) above
T1 sequence (P00742 235-488 limits assumed): as the sequence (P00742 235-488 limits assumed) above
Chain of FXa generated by Russel's viper venom (RVV) FX activator (P00742 41-179 limits assumed): as the sequence (P00742 41-179 limits assumed) above
Chain of FXa generated by Russel's viper venom (RVV) FX activator (P00742 235-488 limits assumed): as the sequence (P00742 235-488 limits assumed) above
T2 sequence (P00742 41-179 limits assumed): as the sequence (P00742 41-179 limits assumed) above
T2 sequence (P00742 235-488 limits assumed): as the sequence (P00742 235-488 limits assumed) above
T3 sequence (P00742 41-179): as the sequence (P00742 41-179 limits assumed) above
T3 sequence (P00742 235-488 V236M): as the sequence (P00742 235-488 limits assumed) above, with V2M counted along it

Question: What does the source list for `O=C(NC[C@H]1CN(c2ccc(N3CCOCC3=O)cc2)C(=O)O1)c1ccc(Cl)s1` [Rivaroxaban]?
Answer: fibrin deposition ([1]; blood of treated patients, high density TF surface): as low as in warfarin treated patients; volume of deposited fibrin ([1]; blood of treated patients, higher rTF coating concentration, 300 s^-1, 5 min): significantly greater; also recorded: fibrin formation in the normal range; volume of deposited fibrin vs untreated controls ([1]; blood of treated patients, lower rTF coating concentration, 300 s^-1, 5 min): markedly smaller; volume of platelet aggregates vs controls ([1]; blood of treated patients, rTF coating 20 and 40 pM): non significantly different from controls; fibrin volume ([1]; rivaroxaban added to normal blood in vitro at the concentration measured in treated patients): reduced fibrin volume partially; FVIIIa generation ([2]; 500 nM rivaroxaban): sustained; FVIIIa generation, coagulation initiated by FVIIa ([2]; TFPI and rivaroxaban combined, rivaroxaban as high as 450 nM, lepirudin present): substantial FVIIIa generation; effect on FVIII activation by nascent FXa generated by TF-FVIIa [2]: only marginally affected; effect on FVIII activation by nascent FXa generated by TF-FVIIa ([2]; listed as rivaroxaban): minimally affected; also recorded: only marginally reduced; effect on FVa generation by the ternary TF-FVIIa-FXa complex [3]: blocked; effect on TG initiated by TF alone in reactions containing FIXa without FVIII [4]: inhibited; concentration at 2 h [5]: 312 nM; peak plasma concentration [6]: 500 nM; FVIIIa generation, initiator RVV-X ([7]; TFPI and rivaroxaban combined, rivaroxaban as high as 450 nM): substantial inhibition; effect on FVIII activation by RVV-generated FXa ([7]; equivalent FXa levels as with TF-FVIIa): inhibited; effect on FVIIIa generation by FXa V17M [8]: insensitive; inhibition of FVIII activation by pre-activated FXa [9]: ~90%
